Like-named read-outs stand apart in the source and are kept apart here.
Columns and labels:
[1] = in DMSO and MeCN at 0.01 M, 0.05 M, 0.1 M, 0.2 M, and 0.5 M; 25 °C
Protocol: The viscosity measurements were collected using the Cannon Instruments Semi-Micro Viscometer. Concentrations of 0.01 M– 0.55 M were used when collecting the viscosity data at ambient temperature (25 °C). The U-tube style viscometer allowed for the collection of kinematic viscosity in centiStokes (cSt) which was then converted to dynamic viscosity in centiPoise (cP) using the electrolyte density.

[2] = Experimental solubility of [Nxxxx]y[VBH] active materials (maximum concentration by UV-Vis spectroscopy); format: physicochemical; details: anhydrous, organic solvent or mixture, read-out: Experimental solubility (maximum concentration of VBH in the electrolyte)
From the text: To investigate the solubilities of VBH-based active materials, we synthesized the alkylammonium [VBH] compounds in their reduced (+4) and oxidized (+5) states ([Nxxxx]2[V(+4)BH] and [Nxxxx][V(+5)BH], where x = 1 (methyl), 2 (ethyl), 3 (n-propyl), 4 (n-butyl)) and measured their solubilities in tetrahydrofuran (THF), acetonitrile (MeCN), dimethyl sulfoxide (DMSO), and propylene carbonate (PC). […] This led us to explicitly explore the interplay between competing trends in solvation energy and lattice enthalpy, which was implied by our previous work,[5] using a combined computational and synthetic strategy.
UV-Vis spectra were collected using the Evolution 220 UV-visible spectrophotometer with a quartz cuvette of 1 cm path length. The molar extinction coefficients for oxidized and reduced species in all solvents except for DMSO were used as determined in our previous study.[5] Molar extinction coefficients for oxidized species in DMSO were determined from a calibration curve. Infrared spectra were collected on a Thermo Scientific Nicolet iS5 equipped with iD7ATR module and a diamond crystal. ^1H- and ^13C-NMRs were performed on Bruker AVANCE III HD 400 MHz High-Performance Digital NMR spectrometer operating at 400 MHz for ^1H NMR and 101 MHz for ^13C NMR. Data acquisition was performed on IconNMR 5.0.3, and spectra were processed in TopSpin 3.5 and Mnova. High-Resolution Mass Spectrometry (HRMS) was performed on a Waters ACQUITY UPLC Xevo QTOF high resolution mass spectrometer using electrospray ionization. X-ray crystallographic experiments were performed on a Bruker D8 Venture X-instrument, using Mo Kα radiation at 200 K. Data were corrected for absorption using SADABS. The structures were solved by direct methods. All non-hydrogen atoms were refined anisotropically by full matrix least-squares on F^2 and all hydrogen atoms except those on water were placed in calculated positions with appropriate riding parameters. Further refinement and molecular graphics were obtained using Bruker Suite of structural programs,[55] OLEX2,[56] and Mercury.[57]
Hydroxylamine hydrochloride (Alfa Aesar), sodium hydroxide (Acros organics), chloroacetic acid (BTC), zinc acetate dihydrate (Acros Organics), calcium chloride (VWR), tetramethylammonium fluoride tetrahydrate (Matrix Scientific), tetraethylammonium fluoride (BTC), triethylamine (Acros Organics), n-butylbromide (Alfa Aesar), n-propylbromide (BTC), ferrocenium hexafluorophosphate (Sigma Aldrich), and vanadyl (iv) acetylacetonate (BTC) were purchased from commercial sources and used as received. Information on the characterization of new materials and those that were reported previously, and were used for solubility studies herein, are provided below. Solvent used in solubility measurement were of anhydrous grade and purchased from Sigma Aldrich.

[3] = acetonitrile (MeCN), MeCN (ϵ = 37), +4 state, [Nxxxx]2[VBH]
[4] = acetonitrile (MeCN), MeCN (ϵ = 37), +5 state, [Nxxxx][VBH]
[5] = dimethyl sulfoxide (DMSO), DMSO (ϵ = 47), +4 state, [Nxxxx]2[VBH]
[6] = dimethyl sulfoxide (DMSO), DMSO (ϵ = 47), +5 state, [Nxxxx][VBH]
[7] = propylene carbonate (PC), PC (ϵ = 66), +4 state, [Nxxxx]2[VBH]
[8] = propylene carbonate (PC), PC (ϵ = 66), +5 state, [Nxxxx][VBH]

| Structure (SMILES) | viscosity [1] | solubility [2, 3] [mM] | solubility [2, 4] [mM] | solubility [2, 5] [mM] | solubility [2, 6] [mM] | solubility [2, 7] [mM] | solubility [2, 8] [mM] |
| --- | --- | --- | --- | --- | --- | --- | --- |
| CCCC[N+](CCCC)(CCCC)CCCC [[N4444]2[VBH]] | generally increases with solution concentration | – | – | – | – | – | – |
| CCC[N+](C)(C)C [compound 1113] | – | 24 | 8 | 246 | 252 | 108 | 40 |
| CCCC[N+](C)(C)C [compound 1114] | – | 76 | 7 | 624 | 225 | 377 | 33 |
| CC[N+](CC)(CC)CC [compound 2222] | – | – | 64 | – | 804 | – | 215 |

Reference: paper PMC8672735, “Computational and experimental investigation of the effect of cation structure on the solubility of anionic flow battery active-materials” (Chemical Science, 2021)
